Data from article PMC9223764, “In Vitro Selection and Characterization of HIV-1 Variants with Increased Resistance to LP-40, Enfuvirtide-Based Lipopeptide Inhibitor” (International Journal of Molecular Sciences, 2022).

What was measured:
Format in all cases: cell-based
[1] = system: HIV-1 NL4-3 pseudovirus (WT); conditions: Table 3
Experimental: (§1) The infectivity of HIV Env mutants and the inhibitory activities of membrane fusion inhibitors on mutants in TZM-bl cells were measured using a single-cycle infection assay as described previously. Briefly, the HIV pseudovirus was packed using an Env-coding plasmid, and pSG3ΔEnv was co-transfected into HEK293T cells. pSG3ΔEnv encodes an Env-defective, luciferase-expressing HIV-1 genome. After the pseudoviruses were harvested and filtrated, the amount of pseudoviruses was fixed via P24 antigen, and their infectivity was determined in TZM-bl cells. In order to measure the inhibitory activities of the inhibitors, inhibitors diluted serially 3-fold were mixed with an equal volume of pseudoviruses, and then 100 µL 1 × 10^5/mL TZM-bl cells were added to the mixture and incubated at 37 °C with 5% CO2 for 48 h. After that, TZM-bl cells were lysed using reporter lysis buffer, and IC50 values were calculated according to luciferase activity measured by luciferase assay reagents and a luminescence counter (Promega, Madison, WI, USA).

[2] = system: HIV-1 NL4-3 gp41 L33S/I37T pseudovirus; conditions: L33S/I37T; Table 3; TZM-bl cells, 48 h, luciferase; means, triplicate, repeated three times
Experimental: (§2) We selected LP-40-induced drug resistance typical point mutations and combination mutation pseudoviruses to evaluate the current representative membrane fusion inhibitors.
as §1

[3] = system: HIV-1 NL4-3 gp41 NDQEEDYN pseudovirus; conditions: Table 3
Experimental: as §2, §1

[4] = system: HIV-1 NL4-3 gp41 NDQEEDYN/L33S/V38A/N42T pseudovirus; conditions: Table 3
Experimental: as §2, §1

[5] = system: HIV-1 NL4-3 gp41 NDQEEDYN/L33S/I37T pseudovirus; conditions: Table 3
Experimental: as §2, §1

[6] = system: HIV-1 NL4-3 gp41 L33S/V38A/N42T pseudovirus; conditions: Table 3
Experimental: as §2, §1

[7] = system: HIV-1 NL4-3 gp41 V38A/N42T pseudovirus; conditions: Table 3
Experimental: as §2, §1

[8] = system: HIV-1 NL4-3 gp41 I37T pseudovirus; conditions: Table 3
Experimental: (§3) Viral RNA was extracted from the supernatant, and, after reverse transcription, the cDNA was amplified using PCR. These amplified DNA were connected to the T-Easy vector and transformed to Trans 2-Blue Chemically Competent Cells. These sequences were determined via sequencing. The expression plasmids, which contained different HIV-1NL4-3 Env mutants, were constructed using DNA assembly (NEBuilder® HiFi DNA Assembly Master Mix). In brief, two primers were used to amplify Env, and the other two primers were used to amplify the vector fragment. The products of PCR were purified with a 20–25 bp overlap in the terminal of Env and the vector fragment Env and the vector fragment were added to the DNA assembly master mix at […] for 15 min and then transformed to Trans 2-Blue Chemically Competent Cells. Additionally, a single-point mutation was generated using double-stranded DNA templates and a selection of mutants with a restriction enzyme (DpnI) as described previously.
as §1

[9] = system: HIV-1 NL4-3 gp41 L33S pseudovirus; conditions: Table 3
Experimental: as §3, §1

[10] = system: HIV-1 NL4-3 gp41 I69V pseudovirus; conditions: Table 3
Experimental: as §3, §1

## CC[C@H](C)[C@H](NC(=O)[C@H](CCC(N)=O)NC(=O)[C@H](C)NC(=O)[C@H](CCC(N)=O)NC(=O)[C@H](CCC(=O)O)NC(=O)[C@H](CC(C)C)NC(=O)[C@H](CC(C)C)NC(=O)[C@H](C)NC(=O)[C@@H](NC(=O)[C@@H](NC(=O)[C@H](CCCCN)NC(=O)[C@H](CCC(N)=O)NC(=O)[C@H](CCC(=O)O)NC(=O)[C@H](Cc1c[nH]c2ccccc12)NC(=O)[C@H](CCC(=O)O)NC(=O)[C@H](CCC(N)=O)NC(=O)[C@H](Cc1c[nH]c2ccccc12)NC(C)=O)[C@@H](C)CC)[C@@H](C)O)C(=O)N[C@@H](CCC(N)=O)C(=O)N[C@@H](CCC(N)=O)C(=O)N[C@@H](CCC(=O)O)C(=O)N[C@@H](CCCCN)C(=O)N[C@@H](CC(N)=O)C(=O)N[C@@H](CCC(=O)O)C(=O)N[C@@H](Cc1ccc(O)cc1)C(=O)N[C@@H](CCC(=O)O)C(=O)N[C@@H](CC(C)C)C(=O)N[C@@H](CCC(N)=O)C(=O)N[C@@H](CCCCN)C(=O)N[C@@H](CC(C)C)C(=O)N[C@@H](CC(=O)O)C(=O)N[C@@H](CCCCN)C(=O)N[C@@H](Cc1c[nH]c2ccccc12)C(=O)N[C@@H](C)C(=O)N[C@@H](CO)C(=O)N[C@@H](CC(C)C)C(=O)N[C@@H](Cc1c[nH]c2ccccc12)C(=O)N[C@@H](CCC(=O)O)C(=O)N[C@@H](Cc1c[nH]c2ccccc12)C(=O)N[C@@H](Cc1ccccc1)C(N)=O [T1249]
[1]; WT NL4-3, TZM-bl cells, 48 h, luciferase, means, triplicate, repeated three times
  IC50: 1.14 nM
[1]; WT NL4-3 reference
  Fold change in IC50: 1.00 fold
[2]
  IC50: 81.5 nM
[3]; NDQEEDYN (E109N, N113D, E119Q, D121E, N125E, S129D, H132Y, S133N), TZM-bl cells, 48 h, luciferase, means, triplicate, repeated three times
  IC50: 1.07 nM
[3]; NDQEEDYN relative to WT NL4-3
  Fold change in IC50: 0.94 fold
[4]; NDQEEDYN/L33S/V38A/N42T relative to WT NL4-3
  Fold change in IC50: 301.12 fold
[4]; NDQEEDYN/L33S/V38A/N42T, TZM-bl cells, 48 h, luciferase, means, triplicate, repeated three times
  IC50: 343 nM
[5]; NDQEEDYN/L33S/I37T relative to WT NL4-3
  Fold change in IC50: 145.54 fold
[5]; NDQEEDYN/L33S/I37T, TZM-bl cells, 48 h, luciferase, means, triplicate, repeated three times
  IC50: 166 nM
[6]; L33S/V38A/N42T relative to WT NL4-3
  Fold change in IC50: 227.04 fold
[6]; L33S/V38A/N42T, TZM-bl cells, 48 h, luciferase, means, triplicate, repeated three times
  IC50: 259 nM
[7]; V38A/N42T relative to WT NL4-3
  Fold change in IC50: 23.77 fold
[7]; V38A/N42T, TZM-bl cells, 48 h, luciferase, means, triplicate, repeated three times
  IC50: 27.1 nM
[8]; I37T relative to WT NL4-3
  Fold change in IC50: 1.21 fold
[8]; I37T, TZM-bl cells, 48 h, luciferase, means, triplicate, repeated three times
  IC50: 1.38 nM
[9]; L33S relative to WT NL4-3
  Fold change in IC50: 11.41 fold
[9]; L33S, TZM-bl cells, 48 h, luciferase, means, triplicate, repeated three times
  IC50: 13 nM
[10]; I69V relative to WT NL4-3
  Fold change in IC50: 0.82 fold
[10]; I69V, TZM-bl cells, 48 h, luciferase, means, triplicate, repeated three times
  IC50: 0.93 nM
